Assay results: patent US20070167412A1, “HALOCOMBSTATINS AND METHODS OF SYNTHESIS THEREOF” (ARIZONA BOARD OF REGENTS, priority 2003, published 2007)

Legend:
Assay type in all cases: cell-based
Candida albicans = assay: reference broth microdilution susceptibility assay; conditions: Table VII; ATCC 90028
Description: (§1) The halocombstatins of the present invention appear to also have antimicrobial properties. More specifically, they appear to have antifungal and/or antibacterial properties. Antimicrobial evaluation of the halocombstatins involved susceptibility testing performed by the reference broth microdilution assay. The antimicrobial activities of the halocombstatins were very similar, targeting Gram-positive bacteria and the pathogenic fungi Cryptococcus neoformans, and results are shown in Table III.
(§2) (See Pettit, G. R., et al., Antineoplastic Agents 463. Synthesis of Combretastatin A-3 Diphosphates, Anticancer Drug Design 2000, 15, 397-404.) To determine the antimicrobial activity of the present compounds, susceptibility testing was performed by the reference broth microdilution assay. (See National Committee for Clinical Laboratory Standards. Methods for Dilution Antimicrobial Susceptibility Tests for Bacteria that Grow Aerobically. Approved Standard M7-A5. Wayne, P A: NCCLS, 2000. National Committee for Clinical Laboratory Standards. Reference Method for Broth Dilution Antifungal Susceptibility Testing of Yeasts. Aproved Standard M27-A. Wayne, P A: NCCLS, 1997.) The antimicrobial activities of the halocombretastatins of the present invention were very similar, targeting Gram-positive bacteria and Cryptococcus neoformans. This is illustrated in further detail in Table III. Thus, several of the novel compounds of the present invention appear to have potential as antimicrobial agents, such as antifingals and antibacterials.

Cryptococcus neoformans = assay: reference broth microdilution susceptibility assay; conditions: Table VII; ATCC 90112
Description: as §1, §2

Enterobacter cloacae = assay: reference broth microdilution susceptibility assay; conditions: Table VII; ATCC 13047
Description: as §1, §2

Enterococcus faecalis = assay: reference broth microdilution susceptibility assay; conditions: Table VII; ATCC 29212
Description: as §1, §2

Escherichia coli = assay: reference broth microdilution susceptibility assay; conditions: Table VII; ATCC 25922
Description: as §1, §2

Micrococcus luteus = assay: reference broth microdilution susceptibility assay; conditions: Table VII; Presque Isle 456
Description: as §1, §2

Neisseria gonorrhoeae = assay: reference broth microdilution susceptibility assay; conditions: Table VII; ATCC 49226
Description: as §1, §2

Staphylococcus aureus = assay: reference broth microdilution susceptibility assay; conditions: Table VII; ATCC 29213
Description: as §1, §2

[1] = test system: Stenotrophomonas maltophilia; assay: reference broth microdilution susceptibility assay; conditions: Table VII; ATCC 13637
Description: as §1, §2

Streptococcus pneumoniae = assay: reference broth microdilution susceptibility assay; conditions: Table VII; ATCC 6303
Description: as §1, §2

Breast MCF-7 = assay: human cancer cell growth inhibition, sulforhodamine B assay; conditions: 48 hours; for human cancer cell line growth inhibition (GI50) Breast MCF-7: Table Ia; for Human cancer cell line inhibition (GI50) Breast adn MCF-7: Table I
Method: (§3) Inhibition of human cancer cell growth was assessed using the National Cancer Institute's standard sulforhodamine B assay. After 48 hours, the plates were fixed with trichloracetic acid, stained with sulforhodamine B and read with an automated microplate reader. […] Inhibition of the mouse leukemia P388 cells was assessed in a 10% horse serum/Fisher medium soution for 24 hours, followed by a 48 hour incubation with serial dilutions of the compounds. Cell growth inhibition (ED50) was then calculated using a Z1 Becleman/Coulter particle counter.

CNS SF268 = assay: as above; conditions: 48 hours; for human cancer cell line growth inhibition (GI50) CNS SF268: Table Ia; for Human cancer cell line inhibition (GI50) CNS SF268: Table I
Method: as §3

Colon KM20L2 = assay: as above; conditions: 48 hours; for human cancer cell line growth inhibition (GI50) Colon KM20L2: Table Ia; for Human cancer cell line inhibition (GI50) Colon KM20L2: Table I
Method: as §3

Lung-NSC NCI-H460 = assay: as above; conditions: 48 hours; for human cancer cell line growth inhibition (GI50) Lung-NSC NCI-H460: Table Ia; for Human cancer cell line inhibition (GI50) Lung-NSC NCI-H460: Table I
Method: as §3

Pancreas BXPC-3 = assay: as above; conditions: 48 hours; for human cancer cell line growth inhibition (GI50) Pancreas BXPC-3: Table Ia; for Human cancer cell line inhibition (GI50) Pancreas-a BXPC-3: Table I
Method: as §3

Prostate DU-145 = assay: as above; conditions: 48 hours; for human cancer cell line growth inhibition (GI50) Prostate DU-145: Table Ia; for Human cancer cell line inhibition (GI50) Prostate DU-145: Table I
Method: as §3

Row | Compound | human cancer cell line growth inhibition (GI50) Breast MCF-7 (Breast MCF-7) [µg/mL] | human cancer cell line growth inhibition (GI50) CNS SF268 (CNS SF268) [µg/mL] | human cancer cell line growth inhibition (GI50) Colon KM20L2 (Colon KM20L2) [µg/mL] | human cancer cell line growth inhibition (GI50) Lung-NSC NCI-H460 (Lung-NSC NCI-H460) [µg/mL] | human cancer cell line growth inhibition (GI50) Pancreas BXPC-3 (Pancreas BXPC-3) [µg/mL] | human cancer cell line growth inhibition (GI50) Prostate DU-145 (Prostate DU-145) [µg/mL] | Human cancer cell line inhibition (GI50) Breast adn MCF-7 (Breast MCF-7) [µg/mL] | Human cancer cell line inhibition (GI50) CNS SF268 (CNS SF268) [µg/mL] | Human cancer cell line inhibition (GI50) Colon KM20L2 (Colon KM20L2) [µg/mL] | Human cancer cell line inhibition (GI50) Lung-NSC NCI-H460 (Lung-NSC NCI-H460) [µg/mL] | Human cancer cell line inhibition (GI50) Pancreas-a BXPC-3 (Pancreas BXPC-3) [µg/mL] | Human cancer cell line inhibition (GI50) Prostate DU-145 (Prostate DU-145) [µg/mL] | other results
1 | COc1ccc(/C=C\c2cc(I)c(OC)c(I)c2)cc1OP(=O)([O-])[O-].[Na+].[Na+] [Compound 0] |  |  |  |  |  |  |  |  |  |  |  |  | Range of MIC, Candida albicans (Candida albicans): * (no inhibition at 64 μg/ml); Range of MIC, Cryptococcus neoformans (Cryptococcus neoformans): * (no inhibition at 64 μg/ml); Range of MIC, Enterobacter cloacae (Enterobacter cloacae): * (no inhibition at 64 μg/ml); Range of MIC, Enterococcus faecalis (Enterococcus faecalis): * (no inhibition at 64 μg/ml); Range of MIC, Escherichia coli (Escherichia coli): * (no inhibition at 64 μg/ml); Range of MIC, Micrococcus luteus (Micrococcus luteus): * (no inhibition at 64 μg/ml); Range of MIC, Neisseria gonorrhoeae (Neisseria gonorrhoeae): 32 to 64 µg/mL; Range of MIC, Staphylococcus aureus (Staphylococcus aureus): * (no inhibition at 64 μg/ml); Range of MIC, Stenotrophomonas maltophilia [1]: * (no inhibition at 64 μg/ml); Range of MIC, Streptococcus pneumoniae (Streptococcus pneumoniae): * (no inhibition at 64 μg/ml)
2 | C1COCCN1.C1COCCN1.COc1ccc(/C=C\c2cc(I)c(OC)c(I)c2)cc1OP(=O)(O)O [V] | 0.066 | 0.054 | >1 | 0.033 | 0.35 | 0.028 |  |  |  |  |  |  | 
3 | C1CCNCC1.C1CCNCC1.COc1ccc(/C=C\c2cc(I)c(OC)c(I)c2)cc1OP(=O)(O)O [W] | 0.070 | 0.041 | >1 | 0.025 | 0.33 | 0.025 |  |  |  |  |  |  | 
4 | COC(=O)CN.COC(=O)CN.COc1ccc(/C=C\c2cc(I)c(OC)c(I)c2)cc1OP(=O)(O)O [X] | 0.10 | 0.054 | >1 | 0.030 | 0.36 | 0.023 |  |  |  |  |  |  | 
5 | COC(=O)C(N)Cc1c[nH]c2ccccc12.COC(=O)C(N)Cc1c[nH]c2ccccc12.COc1ccc(C=Cc2cc(I)c(OC)c(I)c2)cc1OP(=O)(O)O [Y] | 0.22 | 0.086 | >1 | 0.033 | 0.37 | 0.026 |  |  |  |  |  |  | 
6 | COc1ccc(/C=C\c2cc(I)c(OC)c(I)c2)cc1OP(=O)(O)O.NC(CO)(CO)CO.NC(CO)(CO)CO [Z] | 0.047 | 0.040 | 0.94 | 0.025 | 0.33 | 0.021 |  |  |  |  |  |  | 
7 | Calcium 3-bromo-4,4′,5-trimethoxy-Z-stilbene 3′-O-phosphate [Compound 19f] |  |  |  |  |  |  | 0.0022 | 0.0022 | 0.37 | 0.0068 | <0.001 | 0.0063 | 
8 | Cesium 3-bromo-4,4′,5-trimethoiy-phenyl-Z-stilbene 3′-O-phosphate [Compound 19d] |  |  |  |  |  |  | 0.0044 | 0.0064 | 0.48 | 0.0066 | 0.15 | 0.0079 | 
9 | Lithium 3-bromo-4,4′,5-trbnethoxy-Z-stilbene 3′-O-phosphate [Compound 19b] |  |  |  |  |  |  | 0.0039 | 0.0030 | 0.11 | 0.0026 | 0.13 | 0.0066 | 
10 | Magnesium 3-bromg-4,4′,5-trimethoxy-Z-stilbene 3′-O-phosphate [Compound 19g] |  |  |  |  |  |  | 0.0045 | 0.0053 | 0.27 | 0.0039 | 0.074 | 0.0045 | 
11 | Potassium 3-bromo-4,4′,5-trimethoxy-Z-stilbene 3′-O-phosphate [Compound 19c] |  |  |  |  |  |  | 0.0035 | 0.0032 | 0.24 | 0.0029 | 0.20 | 0.0028 | 
12 | Rubidium 3-bromo-4,4′,5-trimetboxy-Z-stilbene 3′-O-phosphate [Compound 19e] |  |  |  |  |  |  | 0.043 | 0.023 | 2.6 | 0.041 | 0.56 | 0.042 | 
13 | Sodium 3-bromo-4,4′,-5-trimethoxy-Z-stilbene 3′-O-phosphate [Compound 19a] |  |  |  |  |  |  | 0.0041 | 0.0034 | 0.23 | 0.0028 | 0.093 | 0.0046 | 
14 | sodium combretastatin A-4 phosphate [Compound 1b, reference compound] |  |  |  |  |  |  |  | 0.036 | 0.034 | 0.029 |  |  | 
